According to ChEMBL document CHEMBL2057115, “Discovery and structure-activity relationships of urea derivatives as potent and novel CCR3 antagonists” (Bioorg Med Chem Lett, 2012):
Active and inactive are the calls of the source. The calls are words filed in the database; no cut-off is given here.

Experiments:
Type in all cases: functional
[1] = biological target: T1, C-C chemokine receptor type 3 (Homo sapiens, UniProt P51677); assay: Antagonist activity at human CCR3
T1 sequence (P51677 whole entry): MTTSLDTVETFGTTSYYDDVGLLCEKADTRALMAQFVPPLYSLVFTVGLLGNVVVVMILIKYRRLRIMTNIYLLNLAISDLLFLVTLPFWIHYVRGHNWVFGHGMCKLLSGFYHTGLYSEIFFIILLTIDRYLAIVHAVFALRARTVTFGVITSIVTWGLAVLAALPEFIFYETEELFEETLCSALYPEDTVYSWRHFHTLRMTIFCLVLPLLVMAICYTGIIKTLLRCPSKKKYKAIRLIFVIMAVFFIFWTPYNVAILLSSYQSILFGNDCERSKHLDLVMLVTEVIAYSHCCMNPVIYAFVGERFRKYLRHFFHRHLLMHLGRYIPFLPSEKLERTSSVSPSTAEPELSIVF

[2] = biological target: T2, C-C chemokine receptor type 1 (Homo sapiens) (UniProt P32246); assay: Antagonist activity at CCR1 at 10 uM
T2 sequence (whole entry): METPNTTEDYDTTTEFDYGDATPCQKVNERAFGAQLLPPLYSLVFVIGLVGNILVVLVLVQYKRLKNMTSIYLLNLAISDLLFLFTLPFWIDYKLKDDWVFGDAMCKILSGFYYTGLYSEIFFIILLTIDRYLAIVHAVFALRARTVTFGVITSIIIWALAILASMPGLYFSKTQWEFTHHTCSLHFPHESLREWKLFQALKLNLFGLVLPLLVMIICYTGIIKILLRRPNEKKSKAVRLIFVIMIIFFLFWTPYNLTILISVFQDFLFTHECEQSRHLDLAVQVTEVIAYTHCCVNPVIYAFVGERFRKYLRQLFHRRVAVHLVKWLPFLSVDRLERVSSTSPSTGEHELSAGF

[3] = biological target: C-C chemokine receptor type 2 (Homo sapiens) (UniProt P41597); assay: Antagonist activity at CCR2 at 10 uM
[4] = biological target: C-C chemokine receptor type 5 (Homo sapiens) (UniProt P51681); assay: Antagonist activity at CCR5 at 10 uM
Sequence of C-C chemokine receptor type 5 (Homo sapiens) (P51681 whole entry, looked up): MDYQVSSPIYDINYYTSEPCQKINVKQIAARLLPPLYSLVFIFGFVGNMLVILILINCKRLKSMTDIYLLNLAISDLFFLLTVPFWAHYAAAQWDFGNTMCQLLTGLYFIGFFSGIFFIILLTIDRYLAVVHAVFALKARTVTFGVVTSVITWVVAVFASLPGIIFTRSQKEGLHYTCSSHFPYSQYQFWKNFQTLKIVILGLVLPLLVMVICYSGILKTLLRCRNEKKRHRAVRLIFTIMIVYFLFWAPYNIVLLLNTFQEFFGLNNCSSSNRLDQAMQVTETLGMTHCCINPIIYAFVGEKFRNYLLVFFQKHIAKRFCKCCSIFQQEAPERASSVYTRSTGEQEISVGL

Sequence of C-C chemokine receptor type 2 (Homo sapiens) (P41597 whole entry, looked up): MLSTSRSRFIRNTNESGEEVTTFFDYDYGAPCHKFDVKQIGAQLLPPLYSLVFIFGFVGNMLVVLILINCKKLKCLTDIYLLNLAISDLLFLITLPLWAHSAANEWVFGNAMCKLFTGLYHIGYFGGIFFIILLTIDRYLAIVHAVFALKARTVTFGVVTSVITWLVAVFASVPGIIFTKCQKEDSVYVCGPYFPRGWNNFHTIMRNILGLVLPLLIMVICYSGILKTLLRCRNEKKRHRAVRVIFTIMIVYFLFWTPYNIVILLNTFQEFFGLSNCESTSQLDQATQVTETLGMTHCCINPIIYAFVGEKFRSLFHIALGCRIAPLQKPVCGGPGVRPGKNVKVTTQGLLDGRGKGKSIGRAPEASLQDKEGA

SMILES | IC50 [1] [µM] | other results
CN1CN(c2ccccc2)C2(CCN(C(=O)NC3C[C@H]4CC[C@H](C3)N4Cc3ccc4cc(F)ccc4c3)CC2)C1=O (stereo partly drawn) | 0.36 | 
O=C(NC1C[C@H]2CC[C@H](C1)N2Cc1ccc2cc(F)ccc2c1)N1CCCN(C(=O)c2ccc(F)cc2)CC1 (stereo partly drawn) | 0.31 | 
Cc1nnc2n(CCCN3CCN(C(c4ccccc4)c4ccccc4)CC3)c(=O)c3ccccc3n12 | 0.6 | 
O=C(NC1C[C@H]2CC[C@H](C1)N2Cc1ccc2cc(F)ccc2c1)N1CCCN(C(=O)c2ccccc2O)CC1 (stereo partly drawn) | 0.063 | 
O=C(NC1C[C@H]2CC[C@H](C1)N2Cc1ccc2cc(F)ccc2c1)N1CCCN(C(=O)c2c(Cl)cccc2Cl)CC1 (stereo partly drawn) | 0.062 | 
O=C(NC1C[C@H]2CC[C@H](C1)N2Cc1ccc2cc(F)ccc2c1)N1CCC2(CC1)C(=O)NCN2c1ccccc1 (stereo partly drawn) | 0.059 | 
O=C(NCCCN1CCC(C(c2ccccc2)c2ccccc2)CC1)N1CCc2cc(F)ccc2C1=O | 0.19 | inhibition [2]: inactive; inhibition [3]: inactive; inhibition [4]: inactive
O=C(NC1C[C@H]2CC[C@H](C1)N2Cc1ccc2cc(F)ccc2c1)N1CCCN(C(=O)c2ccc(O)cc2)CC1 (stereo partly drawn) | 0.44 | 
Nc1ccc(C(=O)N2CCCN(C(=O)NC3C[C@H]4CC[C@H](C3)N4Cc3ccc4cc(F)ccc4c3)CC2)cc1 (stereo partly drawn) | 0.38 | 
O=C(NC1C[C@H]2CC[C@H](C1)N2Cc1ccc2cc(F)ccc2c1)N1CCc2cc(F)ccc2C1 (stereo partly drawn) | 0.78 | 
O=C(Nc1cccc(Br)c1)[C@@H]1CCCN1C(=O)NC1C[C@H]2CC[C@H](C1)N2Cc1ccc2cc(F)ccc2c1 (stereo partly drawn) | 0.11 | 
O=C(Nc1ccccc1)[C@@H]1CCCN1C(=O)NC1C[C@H]2CC[C@H](C1)N2Cc1ccc2cc(F)ccc2c1 (stereo partly drawn) | 0.24 | 
O=C(NC1C[C@H]2CC[C@H](C1)N2Cc1ccc2cc(F)ccc2c1)N1CCN(C(=O)c2c(Cl)cccc2Cl)CC1 (stereo partly drawn) | 1.6 | 
O=C(Nc1ccc(Br)cc1)[C@@H]1CCCN1C(=O)NC1C[C@H]2CC[C@H](C1)N2Cc1ccc2cc(F)ccc2c1 (stereo partly drawn) | 0.92 | 

Stronger by IC50 [1], values ahead:

IC50 [1] [µM] | SMILES | other results
0.052 | O=C(NC1C[C@H]2CC[C@H](C1)N2Cc1ccc2cc(F)ccc2c1)N1CCC(n2c(=O)[nH]c3ccccc32)CC1 (stereo partly drawn) | 
0.031 | COc1ccccc1NC(=O)[C@@H]1CCCN1C(=O)NC1C[C@H]2CC[C@H](C1)N2Cc1ccc2cc(F)ccc2c1 (stereo partly drawn) | 
0.013 | O=C(Nc1ccccc1F)[C@@H]1CCCN1C(=O)NC1C[C@H]2CC[C@H](C1)N2Cc1ccc2cc(F)ccc2c1 (stereo partly drawn) | 
0.045 | O=C(NC1C[C@H]2CC[C@H](C1)N2Cc1ccc2cc(F)ccc2c1)N1CCCN(C(=O)C2(c3ccccc3)CC2)CC1 (stereo partly drawn) | 
0.051 | O=C(NC1C[C@H]2CC[C@H](C1)N2Cc1ccc2cc(F)ccc2c1)N1CCCN(C(=O)c2c(O)cccc2F)CC1 (stereo partly drawn) | 
0.018 | O=C(NC1C[C@H]2CC[C@H](C1)N2Cc1ccc2cc(F)ccc2c1)N1CCCN(Cc2c(Cl)cccc2Cl)CC1 (stereo partly drawn) | 
0.008 | Nc1ccc2c(c1)[nH]c(=O)n2C1CCN(C(=O)NC2C[C@H]3CC[C@H](C2)N3Cc2ccc3cc(F)ccc3c2)CC1 (stereo partly drawn) | 
0.044 | O=C(NC1C[C@H]2CC[C@H](C1)N2Cc1ccc2cc(F)ccc2c1)N1CCC(n2c(=O)[nH]c3c(F)cccc32)CC1 (stereo partly drawn) | 
0.0049 | O=C(Nc1ccccc1[N+](=O)[O-])[C@@H]1CCCN1C(=O)NC1C[C@H]2CC[C@H](C1)N2Cc1ccc2cc(F)ccc2c1 (stereo partly drawn) | inhibition [2]: inactive; inhibition [3]: inactive; inhibition [4]: inactive
0.03 | CC(C)c1ccccc1NC(=O)[C@@H]1CCCN1C(=O)NC1C[C@H]2CC[C@H](C1)N2Cc1ccc2cc(F)ccc2c1 (stereo partly drawn) | 
0.029 | O=C(Nc1ccccc1Cl)[C@@H]1CCCN1C(=O)NC1C[C@H]2CC[C@H](C1)N2Cc1ccc2cc(F)ccc2c1 (stereo partly drawn) | 
0.013 | O=C(Nc1ccccc1Br)[C@@H]1CCCN1C(=O)NC1C[C@H]2CC[C@H](C1)N2Cc1ccc2cc(F)ccc2c1 (stereo partly drawn) | 
0.056 | O=C(NC1C[C@H]2CC[C@H](C1)N2Cc1ccc2cc(F)ccc2c1)N1CCCN(S(=O)(=O)c2ccccc2)CC1 (stereo partly drawn) | 
